Results reported in patent US4743585A (Warner-Lambert Company, priority 1986, dated 1988).

Each compound was assayed against T1, renin (Homo sapiens, UniProt P00797) (assay: in vitro renin inhibitory activity, standard radioimmunoassay for angiotensin I).
T1 sequence (P00797 67-406): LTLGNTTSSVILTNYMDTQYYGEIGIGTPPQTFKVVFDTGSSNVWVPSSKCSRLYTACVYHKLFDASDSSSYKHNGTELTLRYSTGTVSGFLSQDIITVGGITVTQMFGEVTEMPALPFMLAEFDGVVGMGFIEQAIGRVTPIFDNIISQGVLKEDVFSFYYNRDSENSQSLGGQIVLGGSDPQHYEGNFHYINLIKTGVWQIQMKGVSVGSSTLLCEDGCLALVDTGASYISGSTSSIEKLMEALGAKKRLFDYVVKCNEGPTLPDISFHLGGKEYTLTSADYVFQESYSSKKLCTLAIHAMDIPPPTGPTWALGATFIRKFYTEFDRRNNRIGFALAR
Format: biochemical
Protocol: The effectiveness of the aforementioned compounds is determined by a test for in vitro renin inhibitory activity. This activity is determined by a standard radioimmunoassay for angiotensin I. In this assay the enzyme, renin, incubated for two hours at 37° in the presence of a substrate, angiotensinogen, generates the product, angiotensin I. Test compounds are added to the incubation mixture.

Row | Structure (SMILES) | IC50
1 | CC(C)C[C@@H](CN(Cc1ccccc1)C(=O)OCc1ccccc1)NC(=O)C[C@H](O)[C@H](CC(C)C)NC(=O)[C@@H](NC(=O)[C@H](Cc1ccccc1)NC(=O)OC(C)(C)C)C(C)C [Example 56, l-valinamide.N-[(1,1-dimethylethoxy)carbonyl]-L-phenylalanyl-N-[2-hydroxy-4-[[3-methyl-1-[[[(phenylmethoxy)carbonyl](phenylmethyl)amino]methyl]butyl]amino]-1-(2-methylpropyl)-4-oxobutyl]-, [2S-[1R*,2R*,4R*)]]-] | 16000 nM
2 | CC(C)CC(=O)N[C@@H](Cc1ccccc1)C(=O)N[C@@H](Cc1c[nH]cn1)C(=O)N[C@@H](CC(C)C)[C@@H](O)CC(=O)N[C@@H](CC(C)C)CN(Cc1ccccc1)C(=O)OCc1ccccc1 [Example 57, L-histidinamide. N-(3-methyl-1-oxobutyl)-L-phenylalanyl-N-[2-hydroxy-4-[[3-methyl-1-[[[(phenylmethoxy)carbonyl](phenylmethyl)amino]methyl]butyl]amino]-1-(2-methylpropyl)-4-oxobutyl]-, [1S-[1R*,2R*,4(R*)]]-] | 3000 nM
3 | CC(C)CC(=O)N[C@@H](Cc1ccccc1)C(=O)N[C@@H](Cc1c[nH]cn1)C(=O)N[C@@H](CC(C)C)[C@@H](O)CC(=O)N[C@H](CNCc1ccccc1)CC(C)C [Example 58, IVA-PHE-HIS-STA-LEU[CH2 NH]CH2 Ph] | 1900 nM
4 | CC(C)C[C@H](NC(=O)[C@H](C)NC(=O)C[C@H](O)[C@H](CC(C)C)NC(=O)[C@H](Cc1ccccc1)NC[C@H](Cc1ccccc1)NC(=O)OC(C)(C)C)[C@@H](O)CC(=O)NCc1ccccc1 [Example 59, BOC-PHE[CH2 NH]PHE-STA-ALA-STA-NHCH2 Ph] | 5600 nM
5 | Cc1c(C)c(C)c(C[C@H](CN[C@@H](Cc2c[nH]cn2)C(=O)N[C@@H](CC(C)C)[C@@H](O)CC(=O)N[C@@H](CC(C)C)C(=O)NC2CCN(Cc3ccccc3)CC2)NC(=O)OC(C)(C)C)c(C)c1C [Example 61] | 30000 nM
6 | CC(C)C[C@H](NC(=O)C[C@H](O)[C@H](CC(C)C)NC(=O)[C@H](Cc1cncn1COCc1ccccc1)NC[C@H](Cc1ccccc1)NC(=O)OC(C)(C)C)C(=O)NCc1ccccc1 [Example 62, BOC-PHE[CH2 NH]HIS(BOM)-STA-LEU-NHCH2 Ph] | 16000 nM
7 | CC(C)CC(=O)N[C@@H](Cc1ccccc1)C(=O)N[C@@H](Cc1c[nH]cn1)C(=O)N[C@H](CN[C@@H](CC(C)C)C(=O)NCc1ccccc1)CC(C)C [Example 65, L-histidinamide, N-(3-methyl-1-oxobutyl)-L-phenylalanyl-N-[3-methyl-1-[[[3-methyl-1-[[(phenylmethyl)amino]carbonyl]butyl]amino]methyl]butyl], [S-(R*,R*)]] | 7700 nM
8 | CC(C)CC(=O)N[C@@H](Cc1ccccc1)C(=O)N[C@H](CN[C@@H](CC(C)C)[C@@H](O)CC(=O)N[C@@H](CC(C)C)C(=O)NCc1ccccc1)Cc1c[nH]cn1 [Example 66, 3,8,11,14-Tetraazaoctadecanamide, 6-hydroxy-10-(1H-imidazol-4-ylmethyl)-17-methyl-2,7-bis(2-methylpropyl)-4,12,15-triazo-N,13-bis(phenylmethyl)-, [2S-(2R*,6R*,7R*,10R*,13R*)]] | 3500 nM
9 | CC(C)CC(=O)N[C@@H](Cc1ccccc1)C(=O)N[C@@H](Cc1c[nH]cn1)C(=O)N[C@H](CN[C@@H](CC(C)C)C(=O)NCc1ccccc1)CC1CCCCC1 [Example 70, L-histidinamide, N-(3-methyl-1-oxobutyl)-L-phenylalanyl-N-[1-cyclohexylmethyl]-2-[[3-methyl-1-[[(phenylmethyl)amino]carbonyl]butyl]amino]ethyl]-, [S-(R*,R*)]] | 280 nM
10 | CC[C@H](C)[C@H](NC[C@@H](NC(=O)CC(C)C)[C@@H](C)CC)C(=O)N[C@@H](CC(C)C)[C@@H](O)CC(=O)N[C@@H](CC(C)C)C(=O)NCc1ccccc1 [Example 73, 3,8,11,14-tetraazaoctadecanamide, 6-hydroxy-17-methyl-10,13-bis(1-methylpropyl)-2,7-bis(2-methylpropyl)-4,9,15-trioxo-N-(phenylmethyl)] | 30000 nM
11 | CC(C)CC(COC(C(=O)NC(CC(C)C)C(O)CC(=O)NC(C)C(=O)NC(CC(C)C)C(O)CC(=O)NCc1ccccc1)c1ccccc1)NC(=O)OC(C)(C)C (centres unmarked) [Example 75, 10,18-dihydroxy-14-methyl-3,9,17-tris-(2-methylpropyl)-7,12,15,20-tetraoxo-6,22-diphenyl-5-oxa-2,8,13,16,21-pentaazadocosanoic acid, 1,1-dimethylethyl ester] | 20000 nM
12 | CC(C)CC(=O)N[C@@H](Cc1ccccc1)C(=O)N[C@@H](Cc1c[nH]cn1)C(=O)NC(CC(C)C)C(O)CC(CC(C)C)C(=O)NCc1ccccc1 (stereo partly drawn) [Example 76, L-Histidinamide, N-(3-methyl-1-oxobutyl)-L-phenylalanyl-N-[2-hydroxy-6-methyl-1-(2-methylpropyl)-4-[[(phenylmethyl)amino]carbonyl]heptyl]] | 740 nM
13 | CCC(C)CNC(=O)CCC(O)[C@H](CC1CCCCC1)NC(=O)[C@H](Cc1c[nH]cn1)NC(=O)[C@H](Cc1cccc2ccccc12)NC(=O)OCc1ccccc1 (some centres unmarked) [Example 77] | 1600 nM
14 | CC(C)CC(=O)N[C@@H](Cc1ccccc1)C(=O)N[C@@H](Cc1c[nH]cn1)C(=O)N[C@@H](CC1CCCCC1)C(O)CC(CC(C)C)C(=O)NCc1ccccc1 (some centres unmarked) [Example 78] | 240 nM
15 | CC(C)CC(CC(O)[C@H](CC1CCCCC1)NC(=O)OC(C)(C)C)C(=O)N[C@@H](CC(C)C)[C@@H](O)CC(=O)N[C@@H](CC(C)C)C(=O)NCc1ccccc1 (some centres unmarked) [Example 79] | 3800 nM
16 | CC(C)CC(=O)N[C@@H](Cc1ccccc1)C(=O)N[C@@H](Cc1c[nH]cn1)C(=O)N[C@@H](CC1CCCCC1)C(O)CCC(=O)NCc1cccc(CN)c1 (some centres unmarked) [Example 80] | 2100 nM
17 | CC(C)CC(=O)N[C@@H](Cc1ccccc1)C(=O)N[C@@H](Cc1c[nH]cn1)C(=O)N[C@@H](CC1CCCCC1)C(O)CC(CC(C)C)C(=O)NCc1cccc(CN)c1 (some centres unmarked) [Example 81] | 54 nM
18 | CC(C)CC(=O)N[C@@H](Cc1ccccc1)C(=O)N[C@@H](Cc1c[nH]cn1)C(=O)N[C@@H](CC1CCCCC1)C(O)CCC(=O)N[C@@H](CC(C)C)C(=O)NCc1cccc(CN)c1 (some centres unmarked) [Example 82] | 120 nM
19 | CCC(C)CNC(=O)/C=C/C(O)[C@H](Cc1ccccc1)NC(=O)[C@H](Cc1c[nH]cn1)NC(=O)[C@H](Cc1ccccc1)NC(=O)OC(C)(C)C (some centres unmarked) [Example 84, BOC-PHE-HIS-PHE[CHOHCH=CHCO]NHCH2 CH(CH3)CH2 CH3] | 1400 nM
20 | CCC(C)CNC(=O)CCC(O)[C@H](Cc1ccccc1)NC(=O)[C@H](Cc1c[nH]cn1)NC(=O)[C@H](Cc1ccccc1)NC(=O)OC(C)(C)C (some centres unmarked) [Example 85, BOC-PHE-HIS-PHE[CHOHCH2 ]GLY-NHCH2 CH(CH3)CH2 CH3] | 75 nM
